Data from US20220354835A1, “COMPOUNDS FOR DEGRADING TAU PROTEIN AGGREGATES AND USES THEREOF” (Aprinoia Therapeutics Limited, priority 2019, published 2022).

Tests used:
[1] = biological target: T1, heparin-induced aggregated tau (aTau), full-length 2N4R human Tau (Homo sapiens, UniProt P10636); experiment: PBB5 competition assay; assay type: binding; settings: 0.12 μM aTau; for IC50: 0.1 μM PBB5, 37° C. 1 hour, PBB5 fluorescence 530/690 nm; for Emax: 0.1 μM PBB5, compound up to 10 μM, read-out: Competition Assay with PBB5: Bmax (%)
T1 construct: transformed with a full-length 2N4R tau expression plasmid; made in house; host or cells: E. coli BL21
Description: (§1) (A) Expression and purification of human Tau: 1 mM IPTG (Sangon Biotech, Cat. No A100487) was used to induce production of tau by bacteria (BL21, Invitrogen, Cat. No C600003) transformed with a full-length 2N4R tau expression plasmid. After 3 hours, cell pellet was resuspended in lysis buffer (100 mM PIPES, 1 mM EGTA, 1 mM MgSO4, pH 6.8) and lysed by sonication followed by centrifugation (15,000 rpm, 15 min, 4° C.). The supernatant was then placed in a boiling water bath for 20 min, followed by centrifugation (15,000 rpm, 15 min, 4° C.). Supernatant was loaded onto a Q-Sepharose® Fast Flow column (GE healthcare, Cat. No 17-0510-01), the flow-through fraction was loaded onto an SP-Sepharose® Fast Flow column (GE healthcare, Cat. No 17-0729-01), and tau protein was eluted with elution buffer (100 mM PIPES, 1 M NaCl, 1 mM EGTA, 1 mM MgSO4, 0.2 M NaCl, pH 6.8). Collected fractions of tau-containing eluates were pooled, concentrated and dialyzed against HEPES buffer (25 mM HEPES, 0.1 mM EDTA, 0.5 mM DTT, 100 mM NaCl, pH 7.2) and stored at −80° C. in small aliquots until use. Protein concentration was determined by UV absorption.
(§2) (B) Preparation of heparin-induced aggregated tau (aTau): 2 μM of tau prepared in 30 mM Tris-HCl, pH 7.5 buffer was incubated in tube with 15 μM heparin (Sigma, Cat. No H3149) at 37° C. for 24 hours.
(E) PBBS competition assay: 2 μM of aTau was diluted to 0.12 μM by […] (pH 6.8) and then incubated with 0.1 μM 2-(4-(2-(methylamino)pyridine-5-yl)-1,3-butadiene-1-yl)benzothiazole-6-ol (PBB5) and serially diluted compound (three-fold serial dilution, from 10 to 0.00017 μM) in a 96-well plate (Corning, Cat. No 3573) at 37° C. for 1 hour. Fluorescence intensity (excitation/emission=530/690 nm) of PBB5 was read by microplate spectrometer (EnSpire 2300, PerkinElmer). Percentage of competition was calculated using the following equation: (Max−well of compound alone)/(Max−Min)*100%, where Max=(Tau+PBB5) signals−(buffer+PBB5) signals; and Min=(buffer+PBB5) signals−(buffer+PBB5) signals.
The IC50 value of each compound was calculated with GraphPad Prism software using the “4 Parameter Logistic Model or Sigmoidal Dose-Response Model”:
Y=Bottom+(Top−Bottom)/(1+(IC50/×)^HillSlope)

[2] = biological target: T1, heparin-induced aggregated tau (aTau), full-length 2N4R human Tau; experiment: In vitro fluorometric aTau binding assay; settings: 0.04 μM aTau, serially diluted compound 10 to 0.00017 μM, 37° C. 1 hour, fluorescence
Description: as §1, §2
(D) In vitro fluorometric aTau binding assays: 2 μM aTau was diluted to 0.04 μM with 30 mM Tris-HCl (pH 6.8), and then incubated with serially diluted compound (three-fold serial dilutions, from 10 to 0.00017 μM) in a 96-well plate (Corning, Cat. No 3573) at 37° C. for 1 hour. Fluorescence intensity (excitation/emission=370/500 nm) of APN-0729 was read by microplate spectrometer (EnSpire 2300, PerkinElmer). Compound Kd values were calculated using the following equation: Y=Bmax* X (Kd+X), where X is the concentration of compound; Y is the fluorescence signal of (compound+aTau)−(compound+DMSO); and Bmax is the maximum signal.

[3] = biological target: T2, Tau aggregates in P301L-Tau-FL-GFP HEK293 cells (Homo sapiens, UniProt P10636, P618L); experiment: Tau degradation assay (APNmAb005 ELISA-based Tau aggregation assay); assay type: cell-based; settings: 1 μM of compound, 24 hours, P301L-Tau-FL-GFP HEK293 cells seeded with rTg4510 brain lysate; read-out: Activity (reduction of tau aggregates)
T2 construct: express full-length human tau T40 (2N4R) carrying the P301L mutation with a GFP tag; expressed in transfected cells
Description: (A). Cell-based model of Tau inclusion formation: Six month old rTg4510 mouse brain lysates were used as the source of tau seeds, prepared as described in Example 26 above. P301L-Tau-FL-GFP HEK293 cells represent HEK293 cells express full-length human tau T40 (2N4R) carrying the P301L mutation with a GFP tag (P301L-Tau-FL-GFP). 1×10^6 of P301L-Tau-FL-GFP HEK293 cells were cultured on a 6-well plate in culture medium containing DMEM/F-12 (Gibco) supplemented with 10% fetal bovine serum (FBS) (Gibco), 1% Penicillin-Streptomycin (Gibco) and 0.5 mg/ml geneticin (Thermo Fisher Scientific) for 24 hours to reach 70-90% confluency, indicating the cells were ready for transfection. 50 μg of 6-month-old rTg4510 mouse brain lysate was diluted in 400 μL of serum free medium and mixed with 16 μL of lipofectamine 3000 reagent (Thermo Fisher Scientific) diluted in 400 μl of serum free medium. A solution mixture of rTg4510 brain lysate and lipofectamine 3000 was incubated at room temperature for 25 min. The culture media were removed, and then a solution mixture of rTg4510 lysate and lipofectamine 3000 was added to the cells for transfection. The solution mixture was incubated at room temperature for five hours, followed by medium change to 10% fetal bovine serum (FBS). After two-day incubation, Tau aggregates (Tau spots) were induced and images were acquired by ImageXpress Micro Confocal high-content imaging system (Molecular Devices) as described in Example 52 above. Analysis was performed by two customized modules in MetaXpress software (Molecular Devices) for aggregated tau analysis. Output included cell numbers, numbers of tau spots, average intensity of tau spots, and average size of tau spots.
(B). Compound treatment: 100 μL of 3×10^4 cells comprising Tau aggregates, prepared as described above in step (A), were plated on a 96-well plate coated with poly-D-lysine (BD Biosciences) and cultured for 24 hours. Compounds to be tested were dissolved in culture medium containing 0.1% DMSO. Each of test compounds in the concentration of 1, 0.2 and 0.04 μM was added to the cells comprising Tau aggregates and incubated at 37° C. for 24 hours. After that, culture medium was removed, cells were washed with PBS solution and then lysed using 30 μL of lysis buffer (PBS containing 0.3% Triton X-100 and 400 mM NaCl) for one hour at 4° C., and then cell lysate was diluted by 170 μl of PBS containing 400 mM NaCl. Cell lysate was filtrated by a […] filtration plate (Pall) and applied for Tau aggregation assay.
(C). Control cell lysate: control cell lysate was collected from non-seeded cells.
(D). ELISA-based Tau aggregation assay: APNmAb005 ELISA kit for Tau aggregation assay was designed and developed to detect abnormal tau aggregates in buffered solution or cell lysate by using anti-Tau APNmab005 as capture and detection antibody. This antibody is a highly specific antibody bound to human tau aggregates accumulated in mammalian cells. APNmAb005 is recited in PCT Patent Application No. PCT/M2020/057415, filed Aug. 5, 2020, which is incorporated herein by reference.
0.15 μg of APNmAb005 in 100 mM sodium carbonate buffer (pH 9.6) was coated on a high-binding polystyrene 96-well microplate (Greiner Bio-One) at 4° C. overnight. The microplate was washed with PBS followed by treatment with Intercept (PBS) blocking buffer (LI-COR) at room temperature for 2 hours. After that, the microplate was washed with PBS, and then the cell lysate with compound treatment, prepared as described above in step (C), was added into each well of the microplate and incubated at room temperature for 2 hours. The microplate was washed with PBS and then incubated with HRP-conjugated secondary antibody APNmAb005 at room temperature for 3 hours. HRP-conjugated secondary antibody APNmAb005 was prepared using HRP conjugation kit (Abcam,ab102890). The microplate was then washed with PBS and incubated with 100 μL of horseradish peroxidase (HRP) substrate at room temperature. […]

T2 sequence (P10636 1-441 isoform P10636-8 P301L): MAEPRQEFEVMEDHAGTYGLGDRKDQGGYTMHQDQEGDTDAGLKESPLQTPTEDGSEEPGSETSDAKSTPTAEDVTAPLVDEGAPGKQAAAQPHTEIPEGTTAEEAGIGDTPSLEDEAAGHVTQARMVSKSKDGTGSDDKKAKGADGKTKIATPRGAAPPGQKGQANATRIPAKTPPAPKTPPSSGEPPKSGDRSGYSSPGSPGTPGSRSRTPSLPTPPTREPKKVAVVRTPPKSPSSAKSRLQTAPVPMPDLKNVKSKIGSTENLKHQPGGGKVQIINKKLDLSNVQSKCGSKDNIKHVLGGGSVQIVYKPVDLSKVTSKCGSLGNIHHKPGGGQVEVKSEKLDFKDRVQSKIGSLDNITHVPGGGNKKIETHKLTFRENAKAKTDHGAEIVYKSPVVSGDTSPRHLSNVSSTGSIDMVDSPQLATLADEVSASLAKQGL
T1 sequence (P10636 1-441 isoform P10636-8): as the sequence (P10636 1-441 isoform P10636-8 P301L) above, with L301P counted along it

Row | SMILES | IC50 [1] [nM] | Emax [1] [%] | Kd [2] [nM] | inhibition at 1 µM [3] [%]
1 | CN(C)c1ccc(-c2ccc(-c3nc4ccc(NCCOCCOCCOCCOCCOCCOc5ccc6c(c5)C(=O)N(C5CCC(=O)NC5=O)C6=O)cc4s3)cc2)cn1 (centres unmarked) [Compound 159985, 2-[2,6-bis(oxo)piperidin-3-yl]-5-[2-[2-[2-[2-[2-[2-[[2-[4-[6-(dimethylamino)-pyridin-3-yl]phenyl]-1,3-benzothiazol-6-yl]amino]ethoxy]ethoxy]ethoxy]ethoxy]ethoxy]-ethoxy]isoindole-1,3-dione] | 320 | 71 | 100 | < 10
2 | CN(C)c1ccc(-c2ccc(-c3nc4ccc(NCCOCCOc5ccc6c(c5)C(=O)N(C5CCC(=O)NC5=O)C6=O)cc4s3)cc2)cn1 (centres unmarked) [Compound 160219, 2-[2,6-bis(oxo)piperidin-3-yl]-5-[2-[2-[[2-[4-[6-(dimethylamino)pyridin-3-yl]phenyl]-1,3-benzothiazol-6-yl]amino]ethoxy]ethoxy]isoindole-1,3-dione] | 150 | 69 | 110 | < 10
3 | CN(C)c1ccc(-c2ccc(-c3nc4ccc(NCCOCCOCCOCCOCCOCCOc5ccc6c(c5)CN(C5CCC(=O)NC5=O)C6=O)cc4s3)cc2)cn1 (centres unmarked) [Compound 160273, 3-[6-[2-[2-[2-[2-[2-[2-[[2-[4-[6-(dimethylamino)pyridin-3-yl]phenyl]-1,3-benzothiazol-6-yl]amino]ethoxy]ethoxy]ethoxy]ethoxy]ethoxy]ethoxy]-3-oxidanylidene-1H-isoindol-2-yl]piperidine-2,6-dione] | 270 | 59 | 470 | < 10
4 | CN(C)c1ccc2nc(-c3ccc(-c4ccc(NCCOCCOCCOCCOCCOCCOc5ccc6c(c5)CN(C5CCC(=O)NC5=O)C6=O)nc4)cc3)sc2c1 (centres unmarked) [Compound 160383, 3-[6-[2-[2-[2-[2-[2-[2-[[5-[4-[6-(dimethylamino)-1,3-benzothiazol-2-yl]-phenyl]pyridin-2-yl]amino]ethoxy]ethoxy]ethoxy]ethoxy]-ethoxy]ethoxy]-3-oxo-1H-isoindol-2-yl]piperidine-2,6-dione] | 270 | 80 | 550 | < 10
5 | CN(C)c1ccc(-c2ccc(-c3cn4cc(OCCOCCOCCOCCOCCOCCOc5ccc6c(c5)C(=O)N(C5CCC(=O)NC5=O)C6=O)ccc4n3)cc2)c(F)n1 (centres unmarked) [Compound 160744, 2-[2,6-bis(oxo)piperidin-3-yl]-5-[2-[2-[2-[2-[2-[2-[2-[4-[6-(dimethyl-amino)-2-fluoro-pyridin-3-yl]phenyl]imidazo[1,2-a]pyridin-6-yl]oxyethoxy]ethoxy]ethoxy]-ethoxy]ethoxy]ethoxy]isoindole-1,3-dione] | 5960 | 113 | 150 | 10 to 20
